Laboratory results published in PMC8365602 (Journal of Medicinal Chemistry, 2021).
Read-outs that look alike come from different tables or passages of the source.

Key:
[1] = target: T1, 5-LOX (Homo sapiens, UniProt P09917); parameters: made in house; host or cells: E. coli Bl21 (DE3); conditions: supplementary csv; # published in ref Pein et al.4; read-out: IC50 (5-LOX enzyme); cited from earlier work
T1 sequence (P09917 1-674): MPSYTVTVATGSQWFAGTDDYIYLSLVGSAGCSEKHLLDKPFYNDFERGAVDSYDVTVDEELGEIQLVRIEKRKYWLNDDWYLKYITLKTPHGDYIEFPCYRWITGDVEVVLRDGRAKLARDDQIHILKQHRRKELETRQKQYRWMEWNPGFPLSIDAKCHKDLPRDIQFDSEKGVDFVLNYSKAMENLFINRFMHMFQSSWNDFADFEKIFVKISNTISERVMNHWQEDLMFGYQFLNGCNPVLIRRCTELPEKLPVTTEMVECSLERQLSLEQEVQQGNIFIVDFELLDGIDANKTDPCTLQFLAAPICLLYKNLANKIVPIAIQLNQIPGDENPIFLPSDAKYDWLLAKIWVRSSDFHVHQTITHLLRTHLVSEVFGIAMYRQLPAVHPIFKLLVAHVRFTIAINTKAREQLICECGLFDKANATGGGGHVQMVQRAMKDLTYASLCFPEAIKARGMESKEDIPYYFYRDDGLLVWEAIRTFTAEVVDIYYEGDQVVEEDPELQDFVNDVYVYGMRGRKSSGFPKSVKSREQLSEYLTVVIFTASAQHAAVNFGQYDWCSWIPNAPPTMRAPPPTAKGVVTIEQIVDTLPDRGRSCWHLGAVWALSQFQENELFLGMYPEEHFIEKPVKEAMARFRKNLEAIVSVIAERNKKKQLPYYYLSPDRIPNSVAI

[2] = target: T1, 5-LOX; assay: 5-LOX product formation in activated PMNL; conditions: for remaining activity at 3 µM / remaining activity at 1 µM: PMNL; for remaining activity at 1 µM: read-out: 5-LOX PMNL residual activity at 1 μM (cells marked b);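 for all read-outs here: freshly isolated human PMNL in PBS pH 7.4 plus glucose, preincubated 10 min at 37 °C with compound, 5-LOX products (all-trans LTB4 isomers, 5-HETE) quantified by RP-HPLC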
Experimental: These volunteers regularly donated blood (every 8–12 weeks) and were physically inspected by a clinician.
Erythrocytes were removed by dextran sedimentation and hypotonic lysis. PMNL were obtained from the cell pellet and platelets from the supernatant.
Freshly isolated PMNL (5 × 10^6) suspended in PBS pH 7.4 with 1 mg/mL glucose or freshly withdrawn human whole blood were preincubated with the test compounds for 10 min (or as indicated) at 37 °C. […] The reaction was stopped with an equal volume of methanol.

[3] = target: T1, 5-LOX; assay: Cell-free 5-LOX activity (isolated human recombinant enzyme)
[4] = target: T1, 5-LOX; conditions: supplementary csv; # published in ref Pein et al.4; read-out: IC50 (5-LOX PMNL); cited from earlier work
[5] = read-out: 5-LOX PMNL residual activity at 3 µM (Table S1)
[6] = read-out: 5-LOX enzyme residual activity at 1 µM (Table S1)
[7] = read-out: 5-LOX PMNL residual activity at 3 μM
[8] = read-out: 5-LOX PMNL IC50, 5-LOX product formation in activated PMNL, mean ± SEM
[9] = read-out: 5-LOX enzyme IC50, isolated human 5-LOX, cell-free, mean ± SEM
[10] = read-out: 5-LOX enzyme residual activity at 1 μM

Row | Compound | IC50 [1] [nM] | remaining activity at 3 µM [2, 5] [%] | remaining activity at 1 µM [3, 6] [%] | IC50 [4] [nM] | IC50 [3] [nM] | remaining activity at 3 µM [2, 7] [%] | IC50 [2, 8] [nM] | IC50 [3, 9] [nM] | remaining activity at 1 µM [3, 10] [%] | remaining activity at 1 µM [2] [%] | IC50 [2] [nM]
1 | Cc1c(C)c2c(c(C)c1O)CC[C@@](C)(CCC[C@H](C)CCC[C@H](C)CCCC(C)C)O2 [Compound 1a, α-tocopherol] | > 1000 | 88.6 ± 10.5 | 86.1 ± 8.3 | > 3000 |  |  |  |  |  |  | 
2 | Cc1cc(O)cc2c1O[C@](C)(CCC[C@H](C)CCC[C@H](C)CCCC(C)C)CC2 [Compound 1d, δ-tocopherol] |  | 107 ± 3.2 | 43.3 ± 7.2 | > 3000 | 600 ± 250 |  |  |  |  |  | 
3 | CC(C)=CCC/C(C)=C/CC/C(C)=C/CC[C@]1(C)CCc2c(C)c(O)c(C)c(C)c2O1 [Compound 6a] |  | 75.5 ± 4.5 | 16.9 ± 6.6 | > 3000 |  |  |  |  |  |  | 
4 | C/C(=C\CC/C(C)=C/CC[C@]1(C)CCc2c(C)c(O)cc(C)c2O1)CCC=C(CO)CO [Compound 27b] |  |  |  |  |  | 0.9 ± 0.5 | 100 ± 20 | 90 ± 20 | 0 |  | 
5 | C/C(=C\CC/C(C)=C/CC[C@]1(C)CCc2cc(O)c(C)c(C)c2O1)CCC=C(CO)CO [Compound 27c] |  |  |  |  |  | 0.8 ± 0.2 | 50 ± 40 |  | 0.1 ± 0.1 |  | 
6 | C/C(=C\CC/C(C)=C/CC[C@]1(C)CCc2cc(O)cc(C)c2O1)CCC=C(CO)CO [Compound 27d, δ-amplexichromanol] |  |  |  |  |  |  | 430 ± 40 |  | 1.8 ± 0.9 | 14.7 ± 1.6 | 
7 | C/C(=C\CC[C@]1(C)CCc2cc(O)cc(C)c2O1)CCC=C(CO)CO [Compound 28, (R,E)-2-(7-(6-Hydroxy-2,8-dimethylchroman-2-yl)-4-methylhept-4-en-1-ylidene)propane-1,3-diol] |  |  |  |  |  | 36.3 ± 6.5 | 2300 ± 260 | 170 ± 30 | 15 ± 2.4 |  | 
8 | Cc1cc(O)cc2c1O[C@](C)(CCC=C(CO)CO)CC2 [Compound 29, (R)-2-(3-(6-Hydroxy-2,8-dimethylchroman-2-yl)propylidene)propane-1,3-diol] |  |  |  |  |  | 86.4 ± 0.8 | > 3000 | > 1000 | 79.7 ± 3.5 |  | 
9 | C/C(=C\CC/C(C)=C/CC[C@]1(C)CCc2cc(OC(=O)CCC(=O)O)cc(C)c2O1)CCC=C(CO)CO [Compound 31, 4-(((R)-2-((3E,7E)-13-Hydroxy-12-(hydroxymethyl)-4,8-dimethyltrideca-3,7,11-trien-1-yl)-2,8-dimethylchroman-6-yl)oxy)-4-oxobutanoic Acid] |  |  |  |  |  |  | 450 ± 100 | 90 ± 30 | 1.1 ± 0.6 | 26.4 ± 6.7 | 
10 | C/C(=C\CC/C(C)=C/CC[C@]1(C)CCc2c(C)c(O)c(C=O)c(C)c2O1)CCC=C(CO)CO [Compound 33] |  |  |  |  |  | 7.5 ± 2.2 | 1380 ± 280 | 170 ± 50 | 8.9 ± 3.5 |  | 
11 | C/C(=C\CC/C(C)=C/CC[C@]1(C)CCc2c(C=O)c(O)cc(C)c2O1)CCC=C(CO)CO [Compound 34] |  |  |  |  |  | 6.1 ± 0.1 | 1810 ± 320 | 170 ± 60 | 13.8 ± 4.4 |  | 
12 | C/C(=C\CC/C(C)=C/CC[C@]1(C)CCc2c(CN3CCCC3)c(O)cc(C)c2O1)CCC=C(CO)CO [Compound 35, 2-((4E,8E)-11-((R)-6-Hydroxy-2,8-dimethyl-5-(pyrrolidin-1-ylmethyl)chroman-2-yl)-4,8-dimethylundeca-4,8-dien-1-ylidene)propane-1,3-diol] |  |  |  |  |  | 17.4 ± 2.4 | 1900 ± 110 | 170 ± 30 | 4.1 ± 0.2 |  | 
13 | C/C(=C\CC/C(C)=C/CC[C@]1(C)CCc2c(CN(C)C)c(O)cc(C)c2O1)CCC=C(CO)CO [Compound 36, 2-((4E,8E)-11-((R)-5-((Dimethylamino)methyl)-6-hydroxy-2,8-dimethylchroman-2-yl)-4,8-dimethylundeca-4,8-dien-1-ylidene)propane-1,3-diol] |  |  |  |  |  | 63.9 ± 14.4 | > 3000 | 110 ± 20 | 3.7 ± 0.4 |  | 
14 | C/C(=C\CC/C(C)=C/CC[C@]1(C)CCc2c(CN3CCOCC3)c(O)cc(C)c2O1)CCC=C(CO)CO [Compound 37, 2-((4E,8E)-11-((R)-6-Hydroxy-2,8-dimethyl-5-(morpholinomethyl)chroman-2-yl)-4,8-dimethylundeca-4,8-dien-1-ylidene)propane-1,3-diol] |  |  |  |  |  | 11.3 ± 3.3 | 1740 ± 90 | 120 ± 30 | 3.9 ± 0.6 |  | 
15 | C/C(=C\CC/C(C)=C/CC[C@]1(C)CCc2c(CN3CCCCC3)c(O)cc(C)c2O1)CCC=C(CO)CO [Compound 38, 2-((4E,8E)-11-((R)-6-Hydroxy-2,8-dimethyl-5-(piperidin-1-ylmethyl)chroman-2-yl)-4,8-dimethylundeca-4,8-dien-1-ylidene)propane-1,3-diol] |  |  |  |  |  | 11.7 ± 1.8 | 1950 ± 70 | 110 ± 20 | 5.1 ± 0.9 |  | 
16 | C/C(=C\CC/C(C)=C/CC[C@]1(C)CCc2c(CN3CCN(C)CC3)c(O)cc(C)c2O1)CCC=C(CO)CO [Compound 39, 2-((4E,8E)-11-((R)-6-Hydroxy-2,8-dimethyl-5-((4-methylpiperazin-1-yl)methyl)chroman-2-yl)-4,8-dimethylundeca-4,8-dien-1-ylidene)propane-1,3-diol] |  |  |  |  |  | 21.6 ± 6.8 | 2030 ± 160 | 310 ± 70 | 16 ± 1.9 |  | 
17 | C/C(=C\CC/C(C)=C/CC[C@]1(C)CCc2c(CN3CCN(C)CC3)c(O)c(CN3CCN(C)CC3)c(C)c2O1)CCC=C(CO)CO [Compound 40, 2-((4E,8E)-11-((R)-6-Hydroxy-2,8-dimethyl-5,7-bis((4-methylpiperazin-1-yl)methyl)chroman-2-yl)-4,8-dimethylundeca-4,8-dien-1-ylidene)propane-1,3-diol] |  |  |  |  |  | 77.8 ± 7.6 | > 3000 | > 1000 | 50.3 ± 4.1 |  | 
18 | CC(=O)c1cc2c(C)c3c(c(C)c2oc1=O)CC[C@@](C)(CC/C=C(\C)CC/C=C(\C)CCC=C(CO)CO)O3 [Compound 41, (R)-3-Acetyl-7-((3E,7E)-13-hydroxy-12-(hydroxymethyl)-4,8-dimethyltrideca-3,7,11-trien-1-yl)-5,7,10-trimethyl-8,9-dihydropyrano[2,3-g]chromen-2(7H)-one] |  |  |  |  |  | 12.4 ± 0.7 | 1250 ± 200 | 630 ± 130 | 35.1 ± 5.7 |  | 
19 | CC(=O)c1cc2c3c(c(C)cc2oc1=O)O[C@](C)(CC/C=C(\C)CC/C=C(\C)CCC=C(CO)CO)CC3 [Compound 42, (R)-2-Acetyl-8-((3E,7E)-13-hydroxy-12-(hydroxymethyl)-4,8-dimethyltrideca-3,7,11-trien-1-yl)-6,8-dimethyl-9,10-dihydropyrano[3,2-f]chromen-3(8H)-one] |  |  |  |  |  | 15.3 ± 6.9 | 1440 ± 420 | 210 ± 20 | 23.3 ± 2.3 |  | 
20 | CCOC(=O)c1cc2c3c(c(C)cc2oc1=O)O[C@](C)(CC/C=C(\C)CC/C=C(\C)CCC=C(CO)CO)CC3 [Compound 43, Ethyl-(R)-8-((3E,7E)-13-hydroxy-12-(hydroxymethyl)-4,8-dimethyltrideca-3,7,11-trien-1-yl)-6,8-dimethyl-3-oxo-3,8,9,10-tetrahydropyrano[3,2-f]chromene-2-carboxylate] |  |  |  |  |  | 8.1 ± 1 | 1580 ± 210 | 470 ± 140 | 29.3 ± 2.6 |  | 
21 | COc1ccc(C2OCC(=CCC/C(C)=C/CC/C(C)=C/CC[C@]3(C)CCc4c(C)c(O)c(CO)c(C)c4O3)CO2)cc1OC (stereo partly drawn) [Compound 46, (2R)-2-((3E,7E)-11-(2-(3,4-Dimethoxyphenyl)-1,3-dioxan-5-ylidene)-4,8-dimethylundeca-3,7-dien-1-yl)-7-(hydroxymethyl)-2,5,8-trimethylchroman-6-ol] |  |  |  |  | 90 | 22.2 ± 8.8 |  |  | 0.7 ± 0.1 |  | 390 ± 180
22 | COc1ccc(C2OCC(=CCC/C(C)=C/CC/C(C)=C/CC[C@]3(C)CCc4c(C)c(O)c(C=O)c(C)c4O3)CO2)cc1OC (some centres unmarked) [Compound 47] |  |  |  |  |  | 84 ± 8.5 | > 3000 | > 1000 | 58.7 ± 4.6 |  | 
23 | C/C(=C\CC/C(C)=C/CC[C@]1(C)CCc2c(CO)c(O)cc(C)c2O1)CCC=C1COC(c2ccc([N+](=O)[O-])cc2)OC1 (stereo partly drawn) [Compound 48, (2R)-2-((3E,7E)-4,8-Dimethyl-11-(2-(4-nitrophenyl)-1,3-dioxan-5-ylidene)undeca-3,7-dien-1-yl)-5-(hydroxymethyl)-2,8-dimethylchroman-6-ol] |  |  |  |  | 210 ± 130 | 15.4 ± 1.9 |  |  | 14 ± 3.2 |  | 490 ± 130
